From patent US11684617B2, “Methods of diagnosing and treating ADHD in biomarker positive subjects” (The Children's Hospital of Philadelphia, priority 2017, dated 2023)
Values joined by “and” are separate entries in the source; they are usually repeats but may differ in a detail not shown here. Identical values can stand only once.

Key:
pediatric ADHD subjects = pediatric ADHD subjects (Akhundian 2001); cited from earlier work
[1] = test system: CNV-positive adolescents with moderately severe ADHD; test: SAGA Phase 2 study: treatment response (responder: >=30% ADHD-RS-5 reduction, CGI-I 1 or 2, composite); format: in vivo, human; conditions: for Responder? (Y/N): Table 19
Protocol: (§1) The maximum dose was 400 mg BID or placebo.
Treatment response was evaluated by measurement of responders and remission. The definition of a “responder” in this study was a response at endpoint of:
A) ≥30% reduction from Baseline in ADHD-RS-5 Total score; • B) CGI-I score of 1 (very much improved) or 2 (much improved); OR • C) Composite (both A and B)
Throughout, the “Response” columns represent the % reduction in ADHD-RS score at endpoint from baseline. […]

[2] = test system: dementia-related cognitive impairment; conditions: cited from earlier work
[3] = test system: CNV-positive adolescents with moderately severe ADHD; conditions: in vivo
animal models = conditions: cited from earlier work
[4] = test system: CNV-positive adolescents with moderately severe ADHD; test: SAGA Phase 2 study: remission (ADHD-RS-5 <=18, CGI-I 1, composite); format: in vivo, human; conditions: endpoint; data not shown
Protocol: as §1
The definition of a “remission” in this study was a response at endpoint of:
A) ADHD-RS-5 Total score ≤18; • B) CGI-I score of 1. OR • C) Composite (both A and B)

[5] = test system: CNV-positive adolescents with moderately severe ADHD; test: SAGA Phase 2 study: tolerability/safety, treatment-emergent adverse events (safety population); conditions: safety population; NFC-1 n = 47
[6] = test system: CNV-positive adolescents with moderately severe ADHD; test: SAGA Phase 2 study: ADHD-RS-5 total score change from baseline (LOCF); format: in vivo, human; design: Response (% reduction in ADHD-RS score at endpoint from baseline): concentration or dose not given beside the values; conditions: for Response (change from baseline in ADHD RS-5 total score): Table 19
Excerpt: Subjects received randomized treatment with either NFC-1 or placebo. Subjects had ADHD as defined by the Diagnostic and Statistical Manual of Mental Disorders, 5th edition (DSM-5) and Version 5 of the Attention Deficit Hyperactivity Disorder Rating Scale (ADHD RS-5) >28 at Baseline with or without conventional ADHD therapy.
The study was a multicenter, Phase 2, double-blind, randomized, placebo-controlled, parallel-group, dose-optimization study. The study enrolled adolescents 12-17 yrs (inclusive) with ADHD defined by DSM-5 criteria.
Subjects were CNV positive for a CNVs in at least one of the 273 Tier 1 or Tier 2 glutamatergic network genes of interest as listed in Table 1 or 2. These subjects positive for a CNV may also be termed “biomarker positive.”
as §1
Efficacy was assessed by the ADHD RS-5, CGI-I, CGI-S, the Adolescent Sleep Hygiene Scale (ASHS), and the Screen for Childhood Anxiety-related Emotional Disorders (SCARED).
The primary efficacy endpoint was the change from baseline in ADHD-RS-5 total score to end of study (last observation carried forward, LOCF) in Intent-to-Treat (ITT) population. The ITT population consisted of 101 patients randomized to NFC-1 or placebo.

[7] = prior human studies; cited from earlier work
[8] = test system: group I and group II/III mGluRs; conditions: in vitro studies (Hirouchi 2000); cited from earlier work
[9] = NFC-1-treated patient with CNV in ADRA2A
[10] = NFC-1-treated patient with CNV in CA8
[11] = NFC-1-treated patient with CNV in GRM5
[12] = NFC-1-treated patient with CNV in SNCA
[13] = study end (LOCF), 8-Gene Subset including CNTN4, NFC-1 BID n = 17, p <0.0001 vs placebo
[14] = study end (LOCF), CNTN4 Subset, NFC-1 BID n = 6, p <0.01 vs placebo
[15] = treatment response at endpoint (ITT, LOCF), NFC-1 BID n = 46, p <0.05 vs placebo

NC(=O)CN1CCCC1=O [piracetam]
effect on ADHD symptoms compared to placebo control (pediatric ADHD subjects): increase ADHD symptoms

O=C1CC[C@H](C(=O)N2CCCCC2)N1 [NFC-1, fasoracetam monohydrate]
Responder? (Y/N) [1, 9]: Y (“Responder” indicates a 30% or greater reduction from baseline in ADHD RS-5 total score)
Responder? (Y/N) [1, 10]: Y (“Responder” indicates a 30% or greater reduction from baseline in ADHD RS-5 total score)
Responder? (Y/N) [1, 11]: Y (“Responder” indicates a 30% or greater reduction from baseline in ADHD RS-5 total score)
Responder? (Y/N) [1, 12]: Y (“Responder” indicates a 30% or greater reduction from baseline in ADHD RS-5 total score)
Responder? (Y/N) ([1]; NFC-1-treated patients with CNV in CNTN4): Y (“Responder” indicates a 30% or greater reduction from baseline in ADHD RS-5 total score)
Responder? (Y/N) ([1]; NFC-1-treated patients with CNV in GRM8): Y (“Responder” indicates a 30% or greater reduction from baseline in ADHD RS-5 total score)
ADHD-RS-5 Total Score: ≥30% Reduction from Baseline, % of subjects [1, 13]: 88% (15)
CGI-I Score 1 or 2, % of subjects [1, 13]: 76% (13)
Composite response, % of subjects [1, 13]: 76% (13)
ADHD-RS-5 Total Score: ≥30% Reduction from Baseline, % of subjects ([1]; study end (LOCF), CNTN4 Subset, NFC-1 BID n = 6, p <0.005 vs placebo): 100% (6)
CGI-I Score 1 or 2, % of subjects [1, 14]: 83% (5)
Composite response, % of subjects [1, 14]: 83% (5)
patients with 30% or greater reduction from baseline in ADHD RS-5 total score ([1]; subjects with a CNV in CNTN4 assigned to NFC-1): 6/6
ADHD RS-5 Total Score: ≥30% Reduction from Baseline, % of subjects ([1]; treatment response at endpoint (ITT, LOCF), NFC-1 BID n = 46, p <0.01 vs placebo): 70% (32)
CGI-I Score 1 or 2, % of subjects [1, 15]: 57% (26)
Composite response, % of subjects [1, 15]: 57% (26)
safety and tolerability ([2]; Phase I-III trials, dementia indications): generally safe and well tolerated
effects on psychiatric symptoms ([2]; Phase III data, cerebral infarct patients and adult dementia patients with cerebrovascular diseases): beneficial effects
efficacy in dementia ([2]; Phase III trials): did not show sufficient efficacy
subjects in whom dosing with the highest dose (400 mg BID) was achieved ([3]; human, 4 weeks): 91%
Any TEAE, % of subjects ([3]; human, 6 weeks): 70%
Discontinuations due to TEAEs, % of subjects ([3]; human, 6 weeks): 6%
TEAE: Accidental overdose, % of subjects ([3]; human, 6 weeks): 11%
TEAE: Appetite increased, % of subjects ([3]; human, 6 weeks): 6%
TEAE: Fatigue, % of subjects ([3]; human, 6 weeks): 15%
TEAE: Headache, % of subjects ([3]; human, 6 weeks): 9%
TEAE: Irritability, % of subjects ([3]; human, 6 weeks): 2%
TEAE: Nasopharyngitis, % of subjects ([3]; human, 6 weeks): 2%
TEAE: Nausea, % of subjects ([3]; human, 6 weeks): 6%
TEAE: Weight increased, % of subjects ([3]; human, 6 weeks): 15%
overall tolerability [3]: generally well-tolerated
serious TEAEs [3]: No serious TEAEs were reported
severity of TEAEs [3]: majority of TEAEs were mild-to-moderate
effects on learning and memory (animal models): Positive effects
difference between treatment groups in remission [4]: no significant difference
TEAE: Upper respiratory tract infection, % of subjects [5]: 4%
difference between placebo and NFC-1 in ADHD-RS-5 total score change from Baseline to LOCF endpoint (primary endpoint) ([6]; ITT, overall population, optimized dose 100, 200 or 400 mg BID): not significant
Response (% reduction in ADHD-RS score at endpoint from baseline) ([6]; Table 16, individual subjects with CNV in CNTN4 in the NFC-1-treated group, monohydrate): −41.46% and −35.9% and −77.42% and −70% and −62.5% and −48.65%
Response (change from baseline in ADHD RS-5 total score) [6, 9]: −65%
Response (change from baseline in ADHD RS-5 total score) [6, 10]: −33.3333%
Response (change from baseline in ADHD RS-5 total score) [6, 11]: −37.5%
Response (change from baseline in ADHD RS-5 total score) [6, 12]: −76.9231%
Response (change from baseline in ADHD RS-5 total score) ([6]; NFC-1-treated patients with CNV in GRM8, monohydrate): −48.2759% and −39.0244%

O=C1CC[C@H](C(=O)N2CCCCC2)N1 [Fasoracetam, (+)-5-oxo-D-prolinepiperidinamide]
bioavailable [7]: 79%-97%
half-life [7]: 5 to 6.5 h
stimulation of mGluRs [8]: can stimulate both group I and group II/III mGluRs
